Measurements taken from US12357536B2, “Containers with selective dissolved gas content” (BAXTER INTERNATIONAL INC., priority 2021, dated 2025).

How the values were obtained:
[1] = Stability of a trace element mix in glass bottle, 6 months at 5° C. or 40° C. (Table V); conditions: for Concentration recovered, T6M 5° C. / Percentage of the recovered TE, T6M 5° C. / Concentration recovered, T6M 40° C. / Percentage of the recovered TE, T6M 40° C.: TE mix, pH 2.2, 200 mM malic acid, glass bottle (about 3 ppm DO), heat sterilized; for Concentration recovered, T6M 5° C. / Percentage of the recovered TE, T6M 5° C.: 6 months at 5° C.; for Percentage of the recovered TE, T6M 5° C. / Percentage of the recovered TE, T6M 40° C.: vs theoretical concentration; for Concentration recovered, T6M 40° C. / Percentage of the recovered TE, T6M 40° C.: 6 months at 40° C.
Method: The solution was heat sterilized and stored 6 months at 40° C. or 5° C.(T6M 40° C. and T6M 5° C., respectively).

[2] = Regression between Se assay and log dissolved oxygen (Example 7, FIG. 13); type: physicochemical; conditions: fitted line Se dosage vs log oxygen content; sterilized samples stored at 40° C.
Method: The impact of oxygen seems of major importance in the stability of Selenite. […] To confirm this hypothesis, a regression test was performed between Se assay results and log(dissolved oxygen results). Only sterilized samples stored at 40° C. were considered as the sterilization and storage at high temperature seem to both increase the Se degradation.
Dissolved oxygen content is so the most impacting parameter and CQA (Critical Quality Attribute) in the stability of Selenium. As shown in the Figure, low oxygen amounts of around 0.5 ppm can be sufficient to ensure the stability of Selenite in solution, no saturation would be required.

Row | SMILES | Percentage of the recovered TE, T6M 5° C. [1] [%] | Percentage of the recovered TE, T6M 40° C. [1] [%] | Concentration recovered, T6M 5° C. [1] [ng/mL] | Concentration recovered, T6M 40° C. [1] [ng/mL] | Oxygen amount sufficient to ensure the stability of Selenite in solution [2] | Stability of selenite ([1]; in the presence of few ppm of dissolved oxygen)
1 | [Cr] [Cr, chromium] | 77.3 | 83.1 | 306 | 329 |  | 
2 | [Cu] [Cu, copper] | 81.1 | 87.1 | 9784 | 10504 |  | 
3 | [Se] [Se, selenium] | 87.2 | 87.7 | 2446 | 2461 |  | 
4 | [Zn] [Zn, zinc] | 77.8 | 84.4 | 158347 | 171822 |  | 
5 | O=[Se](O)O [selenite, sodium selenite] |  |  |  |  | around 0.5 ppm | stable

Continued, in another order:

Row | Percentage of the recovered TE, T6M 5° C. [1] [%] | Percentage of the recovered TE, T6M 40° C. [1] [%] | SMILES | Concentration recovered, T6M 5° C. [1] [ng/mL] | Concentration recovered, T6M 40° C. [1] [ng/mL] | Oxygen amount sufficient to ensure the stability of Selenite in solution [2] | Stability of selenite ([1]; in the presence of few ppm of dissolved oxygen)
6 | 94 | 88 | F [F, fluoride] |  |  |  | 
7 | 78.6 | 84.4 | I [I, iodide] | 3167 | 3401 |  | 
8 | 79.9 | 86.6 | [Mo] [Mo, molybdenum] | 653 | 707 |  | 
